Experimental data: the supplement of paper PMC10307832

Tests used:
Experiment in all cases: relative viability (nuclei count vs DMSO), 5 days (fraction); higher = more cells survive
GSK126 = compound: CC[C@H](C)N1C=C(C2=C(C=C(C=C21)C3=CN=C(C=C3)N4CCNCC4)C(=O)NCC5=C(C=C(NC5=O)C)C)C [GSK126]
Procedure, shortened: (§1)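 Vehicle-anchored 1536-well plates of lung cancer cell lines, held overnight at 37 °C, were pinned with five library-drug doses (not always all listed) spaced by √10. No medium change followed over the next 5 days, after which the cells were fixed, permeabilised and Hoechst-stained together and imaged at 4×. Nuclei were counted with MetaXpress, and viability is treated-well nuclei over vehicle-well nuclei, taken as a median across plates. Plates passed with control CV below 25% and at least one doubling.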

Carboplatin = compound: C1CC(C1)(C(=O)O)C(=O)O.[NH2-].[NH2-].[Pt+2] [Carboplatin]
Procedure, shortened: as §1

MLN4924 = compound: NS(=O)(=O)OC[C@@H]1C[C@@H](n2ccc3c(N[C@H]4CCc5ccccc54)ncnc32)C[C@@H]1O [MLN4924]
Procedure, shortened: as §1

Carboplatin + Foretinib = compound: C1CC(C1)(C(=O)O)C(=O)O.[NH2-].[NH2-].[Pt+2] [Carboplatin] + COc1cc2c(Oc3ccc(NC(=O)C4(C(=O)Nc5ccc(F)cc5)CC4)cc3F)ccnc2cc1OCCCN1CCOCC1 [Foretinib] (partner 0.25 µM)
Procedure, shortened: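 The day after seeding in 1536-well plates, lung cancer cell lines were treated by pin tool with a single drug, or with a fixed anchor-drug dose together with five library-drug doses (not always all listed) in √10 steps. After 5 days, a combined fix-and-stain solution (final 0.05% Triton X-100, 1% formaldehyde, 1 ug/ml Hoechst) was added. Nuclei counted on 4× images gave relative viability as treated counts over vehicle counts, reported as the median of duplicate plates.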

| Cell Line | relative viability (GSK126; 0.08 µM) | relative viability (GSK126; 0.253 µM) | relative viability (GSK126; 0.8 µM) | relative viability (GSK126; 2.53 µM) | relative viability (GSK126; 8 µM) | relative viability (Carboplatin; 0.08 µM) | relative viability (Carboplatin; 0.253 µM) | relative viability (Carboplatin; 0.8 µM) | relative viability (Carboplatin; 2.53 µM) | relative viability (Carboplatin; 8 µM) | relative viability (MLN4924; 0.04 µM) | relative viability (MLN4924; 0.1265 µM) | relative viability (MLN4924; 0.4 µM) | relative viability (MLN4924; 1.265 µM) | relative viability (MLN4924; 4 µM) | relative viability (Carboplatin + Foretinib; first compound 0.08 µM) | relative viability (Carboplatin + Foretinib; first compound 0.253 µM) | relative viability (Carboplatin + Foretinib; first compound 0.8 µM) | relative viability (Carboplatin + Foretinib; first compound 2.53 µM) | relative viability (Carboplatin + Foretinib; first compound 8 µM) |
| --- | --- | --- | --- | --- | --- | --- | --- | --- | --- | --- | --- | --- | --- | --- | --- | --- | --- | --- | --- | --- |
| A549 | 1.08 | 0.946 | 0.955 | 1.01 | 0.987 | 1.02 | 1.01 | 0.938 | 0.935 | 0.563 | 0.946 | 0.863 | 0.658 | 0.0802 | 0.0487 | 1.03 | 0.991 | 0.888 | 0.768 | 0.741 |
| NCI-H358 | 1.07 | 0.965 | 0.914 | 1.05 | 1.01 | 1.25 | 1.07 | 1.06 | 0.891 | 0.928 | 1.02 | 0.904 | 0.327 | 0.201 | 0.213 | 0.736 | 0.783 | 0.721 | 0.764 | 0.651 |
| NCI-H2342 | 1.12 | 1.04 | 1.07 | 1.05 | 1.17 | 1.06 | 0.987 | 1.07 | 1.02 | 0.873 | 1.18 | 0.931 | 0.97 | 0.788 | 0.57 | 0.949 | 0.961 | 0.993 | 0.865 | 0.785 |
| NCI-H2087 | 1.18 | 0.945 | 1 | 1.15 | 1.17 | 1.14 | 1.21 | 0.997 | 0.999 | 0.711 | 1.02 | 0.969 | 0.491 | 0.16 | 0.0937 | 1.18 | 1.14 | 1.15 | 0.957 | 0.757 |
| NCI-H596 | 0.983 | 0.9 | 0.965 | 1.01 | 0.981 | 0.993 | 0.995 | 0.938 | 0.826 | 0.752 | 0.973 | 1.1 | 0.554 | 0.854 | 0.739 | 0.828 | 1.01 | 0.707 | 0.59 | 0.431 |
| ChaGo-K-1 | 1.01 | 1.03 | 0.973 | 1.05 | 1.02 | 0.989 | 0.959 | 0.93 | 0.818 | 0.614 | 0.858 | 0.833 | 0.503 | 0.238 | 0.23 | 0.872 | 0.993 | 0.835 | 0.745 | 0.579 |
| SW 1573 | 1.21 | 1.08 | 1.02 | 1.05 | 1.24 | 1.05 | 1.02 | 0.992 | 0.972 | 0.702 | 1.16 | 0.954 | 0.332 | 0.0817 | 0.0856 | 0.883 | 1.03 | 1.01 | 0.901 | 0.799 |
| LCLC-97TM1 | 0.999 | 0.965 | 0.91 | 1.02 | 1.11 | 1.13 | 0.978 | 1.09 | 1.03 | 0.837 | 0.929 | 0.657 | 0.31 | 0.073 | 0.0774 | 1 | 0.956 | 0.892 | 0.868 | 0.765 |
| HCC-366 | 1.12 | 1.03 | 1.02 | 1.01 | 1 | 1.04 | 0.974 | 1.03 | 1.02 | 0.95 | 1.05 | 1.02 | 0.674 | 0.228 | 0.0735 | 0.91 | 0.877 | 0.957 | 0.918 | 0.759 |
| HARA | 1.07 | 0.936 | 0.931 | 0.855 | 0.756 | 1.02 | 0.937 | 0.932 | 0.921 | 0.944 | 0.855 | 0.834 | 0.412 | 0.103 | 0.127 | 1.05 | 1.03 | 0.83 | 0.798 | 0.744 |
| NCI-H1915 | 1.05 | 0.978 | 1.01 | 0.973 | 0.994 | 1.03 | 1.02 | 0.971 | 0.932 | 0.737 | 0.958 | 0.911 | 0.692 | 0.219 | 0.224 | 1.12 | 1.13 | 1.04 | 1.05 | 0.81 |
| NCI-H1650 | 1.05 | 0.948 | 0.954 | 1.02 | 1.03 | 0.995 | 0.888 | 0.933 | 0.812 | 0.638 | 0.708 | 0.578 | 0.286 | 0.171 | 0.201 | 1.51 | 1.25 | 0.986 | 0.982 | 0.779 |
| NCI-H650 | 0.991 | 0.962 | 0.939 | 0.914 | 1.03 | 0.988 | 0.874 | 0.959 | 0.864 | 0.668 | 0.618 | 0.668 | 0.268 | 0.183 | 0.194 | 1.01 | 1.14 | 0.941 | 0.91 | 0.614 |
| NCI-H2126 | 1.04 | 1.02 | 1.06 | 1.07 | 1 | 1.05 | 1.03 | 1.02 | 0.946 | 0.948 | 1.03 | 1.02 | 0.785 | 0.459 | 0.373 | 1.31 | 1.14 | 1.04 | 1.25 | 1.04 |
| NCI-H838 | 1.01 | 0.919 | 0.913 | 0.971 | 0.926 | 1.03 | 1.03 | 0.949 | 0.921 | 0.951 | 0.93 | 0.488 | 0.325 | 0.158 | 0.219 | 1.16 | 1.06 | 0.934 | 0.931 | 0.669 |
| NCI-H522 | 1.1 | 0.929 | 1.01 | 0.977 | 0.989 | 1.12 | 0.963 | 0.922 | 0.873 | 0.881 | 0.87 | 0.777 | 0.515 | 0.397 | 0.426 | – | – | – | – | – |
| NCI-H1792 | 0.998 | 0.837 | 1.04 | 0.934 | 0.879 | 1.07 | 0.918 | 0.83 | 0.773 | 0.723 | 0.929 | 0.954 | 1.1 | 0.412 | 0.4 | – | – | – | – | – |
